Experimental data: the NIST ThermoML archive (doi:10.1016/j.tca.2009.06.015)

Assays:
[1] = xn = mol fraction of the nth substance listed; settings: 101 kPa, Liquid; for viscosity: Capillary tube (Ostwald / Ubbelohde) method; for mass density: Vibrating tube method
[2] = refractive index (Na D-line) (dimensionless); xn = mol fraction of the nth substance listed; settings: 101 kPa, Liquid, Standard Abbe refractometry

CCCC(C)O (stereo not given) [pentan-2-ol] + CC#N
Settings	mass density, [1] [kg/m3]	refractive index, [2]	viscosity, [1] [mPa·s]
293.15 K, x2 = 0	809.29	1.406	4.298
293.15 K, x2 = 0.116	806.75	1.4035	2.544
293.15 K, x2 = 0.1727	805.46	1.402	2.093
293.15 K, x2 = 0.2827	802.79	1.3981	1.534
293.15 K, x2 = 0.3546	801.01	1.3951	1.262
293.15 K, x2 = 0.4458	798.66	1.3908	1.008
293.15 K, x2 = 0.5366	796.26	1.3858	0.81
293.15 K, x2 = 0.6488	793.09	1.3779	0.6391
293.15 K, x2 = 0.7671	789.52	1.3674	0.5048
293.15 K, x2 = 0.8793	786.03	1.3561	0.4119
293.15 K, x2 = 0.9578	783.59	1.3478	0.3705
298.15 K, x2 = 0	805.24	1.4045	3.478
298.15 K, x2 = 0.116	802.61	1.4012	2.17
298.15 K, x2 = 0.1727	801.25	1.3999	1.804
298.15 K, x2 = 0.2827	798.55	1.3965	1.362
298.15 K, x2 = 0.3546	796.68	1.3941	1.125
298.15 K, x2 = 0.4458	794.17	1.3901	0.9044
298.15 K, x2 = 0.5366	791.6	1.3848	0.7392
298.15 K, x2 = 0.6488	788.28	1.3764	0.5884
298.15 K, x2 = 0.7671	784.54	1.3657	0.4715
298.15 K, x2 = 0.8793	780.88	1.3548	0.391
298.15 K, x2 = 0.9578	778.28	1.3461	0.3537
303.15 K, x2 = 0	801.13	1.3724	–
303.15 K, x2 = 0.116	798.39	1.3715	1.474
303.15 K, x2 = 0.1727	796.93	1.3707	1.288
303.15 K, x2 = 0.2827	794.05	1.3694	1.069
303.15 K, x2 = 0.3546	792.08	1.3684	0.9367
303.15 K, x2 = 0.4458	789.54	1.3666	0.7975
303.15 K, x2 = 0.5366	786.91	1.3641	0.6615
303.15 K, x2 = 0.6488	783.41	1.3608	0.5492
303.15 K, x2 = 0.7671	779.52	1.3561	0.4429
303.15 K, x2 = 0.8793	775.68	1.35	0.3617
303.15 K, x2 = 0.9578	772.96	1.3433	0.3311
308.15 K, x2 = 0	796.94	1.3703	–
308.15 K, x2 = 0.116	794.1	1.3694	1.296
308.15 K, x2 = 0.1727	792.65	1.3687	1.15
308.15 K, x2 = 0.2827	789.63	1.3679	0.9576
308.15 K, x2 = 0.3546	787.6	1.367	0.846
308.15 K, x2 = 0.4458	784.92	1.3657	0.7168
308.15 K, x2 = 0.5366	782.17	1.3637	0.6057
308.15 K, x2 = 0.6488	778.55	1.3605	0.5051
308.15 K, x2 = 0.7671	774.47	1.3557	0.4111
308.15 K, x2 = 0.8793	770.45	1.3491	0.3442
308.15 K, x2 = 0.9578	767.48	1.3417	0.3202
